Test results taken from paper PMC3925085, “Subditine, a New Monoterpenoid Indole Alkaloid from Bark of Nauclea subdita (Korth.) Steud. Induces Apoptosis in Human Prostate Cancer Cells” (PLoS ONE, 2014).

How the values were obtained:
Type in all cases: cell-based
[1] = test system: PC-3 human prostate cancer cells; experiment: MTT cell proliferation assay, PC-3; conditions: for IC50: Homo sapiens, MTT, 24 hours, PC-3, mean ± S.D.
Procedure: (§1) Human prostate normal cell line (RWPE-1) and human prostate cancer cell lines; LNCaP and PC-3, were purchased from the American Type Culture Collection (ATCC, Manassas, Virginia, USA). LNCaP and PC-3 cells were grown in Roswell Park Memorial Institute medium (RPMI) supplemented with 10% heat-inactivated fetal bovine serum (FBS, Sigma-Aldrich, St. Louis, MO), 1% penicillin and streptomycin. RWPE-1 cells were maintained in Keratinocyte Serum Free Medium (K-SFM, ATCC) supplemented with bovine pituitary extract (BPE) and human recombinant epidermal growth factor (EGF). Mediums were supplemented with 10% heat-inactivated fetal calf serum (Sigma.), 100 U/ml penicillin and […] streptomycin (Flowlab, Sydney, Australia). All cells were maintained in a humidified atmosphere of 5% CO2 in air at 37°C incubator.
(§2) The anti-proliferative activity was evaluated by performing MTT assays as previously described with minor modifications. Briefly, cells were seeded 24 hours prior to treatment in a 96-well plate at 5×10^4 cells/well in order to obtain 70% to 80% confluent cultures. The compounds were dissolved in DMSO (Sigma Chemical Co., St. Louis, Missouri, USA) followed by a 2×serial dilution for 10 points ranged from 0.825 µM to 100 µM. The 96-well plate was incubated for 24 hours at 37°C in a humidified atmosphere with 5% CO2. At the end of incubation, 50 µl of MTT solution (2 mg/ml; Sigma) was added to each well. The plate was then incubated for 4 hours. All medium was removed and the purple formazan crystal formed at the bottom of the wells was dissolved with 200 µl DMSO for 20 minutes. The absorbance at 570 nm was read on a spectrophotometric plate reader (Hidex). The proportion of surviving cells was calculated as: […]
(§3) Dose-response curves were constructed to obtain the IC50 values. Experimental data were derived from 3 independent experiments. The selectivity index was obtained by mean IC50 RWPE-1/mean IC50 of LNCaP or PC-3.

[2] = test system: RWPE-1 human normal prostate epithelial cells; experiment: MTT cell proliferation assay, RWPE-1; conditions: 24 hours, RWPE-1 normal cells, mean ± S.D.
Procedure: as §1, §2, §3

[3] = test system: LNCaP human prostate cancer cells; experiment: MTT cell proliferation assay, LNCaP; conditions: for IC50: Homo sapiens, MTT, 24 hours, LNCaP, mean ± S.D.
Procedure: as §1, §2, §3

Row | IC50 [1] [µM] | IC50 [3] [µM] | Compound | IC50 [2] [µM] | selectivity index (SI) PC-3 ([1]; mean IC50 RWPE-1/mean IC50 of PC-3) | selectivity index (SI) LNCaP ([3]; mean IC50 RWPE-1/mean IC50 of LNCaP)
1 | 92.1 ± 1.28 | 86.35 ± 0.09 | O=c1c2cnccc2cc2n1CCc1c-2[nH]c2ccccc12 [Nauclefine, nauclefine] | 72.85 ± 0.06 | – | –
2 | 122 ± 3.73 | 149.16 ± 0.09 | C=Cc1cncc2c(=O)n3c(cc12)-c1[nH]c2ccccc2c1CC3 [Angustine, angustine] | 98.39 ± 0.1 | – | –
3 | 84.9 ± 1.48 | 140.27 ± 0.1 | Cc1cc2cc3n(c(=O)c2cn1)CCc1c-3[nH]c2ccccc12 [Angustidine, angustidine] | 36.07 ± 0.05 | – | –
4 | 67.3 ± 0.87 | 58.09 ± 0.05 | CC(O)c1cncc2c(=O)n3c(cc12)-c1[nH]c2ccccc2c1CC3 (centres unmarked) [Angustoline, 1-(1-Hydroxyethyl)-7,8-dihydroindolo[2,3-a]pyridine[3,4-g]quinolizin-5(13H)-one] | 65.94 ± 0.04 | – | –
5 | 1.33 ± 0.02 | 1.27 ± 0.04 | CC(=O)O[C@H]1C(=O)[C@@]2(C)[C@H]([C@H](OC(=O)c3ccccc3)[C@]3(O)C[C@H](OC(=O)[C@H](O)[C@@H](NC(=O)c4ccccc4)c4ccccc4)C(C)=C1C3(C)C)[C@]1(OC(C)=O)CO[C@@H]1C[C@@H]2O [Paclitaxel, paclitaxel, reference compound] | 1.58 ± 0.06 | 1.19 | 1.24
